Laboratory results reported in US20230111656A1, “METHODS OF CONTROLLING OR PREVENTING INFESTATION OF SOYBEAN PLANTS BY THE PHYTOPATHOGENIC MICROORGANISM CORYNESPORA CASSIICOLA” (SYNGENTA CROP PROTECTION AG, priority 2020, published 2023).

System: Corynespora cassiicola
Assay: Liquid culture growth inhibition of Corynespora cassiicola (PDB, 96-well microtiter plate, photometric)
Type: cell-based
Details: 24 C, 3-4 days, photometric at 620 nm, compared to untreated control
Experimental: Conidia of the fungus from cryogenic storage were directly mixed into nutrient broth (PDB potato dextrose broth). A DMSO solution of the test compounds was placed into a microtiter plate (96-well format) and the nutrient broth containing the fungal spores was added to it. The test plates were incubated at 24 C and the inhibition of growth (% control of Corynespora cassiicola) was determined photometrically after 3-4 days at 620 nm. The activity of a compound is derived by comparing the inhibition of growth in the treated test solution to the growth in the untreated check. The concentration of the compounds was 0.74, 0.25, and 0.082 ppm.

SMILES: CC1(C)N=C(c2cnc3ccccc3c2)c2ccccc2C1(F)F
- control of Corynespora cassiicola (inhibition of growth) (0.082 ppm): at least 20%
- control of Corynespora cassiicola (inhibition of growth) (0.25 ppm): at least 50%
- control of Corynespora cassiicola (inhibition of growth) (0.74 ppm): at least 70%
